molecular target: T1, rat B1R (bradykinin receptor 1) (Rattus norvegicus, UniProt P97583); experiment: FLIPR Ca2+ assay (Fluo-4) on CHO K1 cells stably transfected with the B1R gene of the rat (rB1R cells): % inhibition at 10 μM / IC50, agonist Des-Arg9-bradykinin; format: cell-based; settings: CHO-K1, rat B1R
T1 construct: expressed in transfected cells; host or cells: CHO K1 cells
T1 sequence (P97583 1-337): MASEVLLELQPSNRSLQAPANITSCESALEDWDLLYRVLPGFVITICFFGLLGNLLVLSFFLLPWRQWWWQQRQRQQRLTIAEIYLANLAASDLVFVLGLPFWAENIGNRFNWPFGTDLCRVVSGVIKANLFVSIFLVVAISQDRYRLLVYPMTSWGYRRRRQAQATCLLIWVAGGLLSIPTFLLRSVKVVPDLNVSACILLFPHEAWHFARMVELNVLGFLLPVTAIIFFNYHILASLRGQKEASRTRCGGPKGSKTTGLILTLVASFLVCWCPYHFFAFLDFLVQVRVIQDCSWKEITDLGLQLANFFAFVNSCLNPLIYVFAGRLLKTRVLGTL
Outline: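 Peak fluorescence counts read on FLIPR (λex 488, λem 540 nm) after two additions: compound first, then agonist at EC80 after 10–20 min. Human line challenged with Lys-Des-Arg9-bradykinin, rat line with Des-Arg9-bradykinin. Suppression of Ca2+ inflow expressed as % of maximum inhibition.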

inhibition at 10 µM [%]	Compound
100	CN(C)c1ncc(CN2CCC3(CC2)CCN(C(=O)c2ccc4c(c2)C(NC(=O)c2cc(C(F)(F)F)ccc2Cl)CC4)CC3)cn1 (stereo not shown) [IND_CC-694, 2-Chloro-N-[6-[9-[(2-dimethylamino-pyrimidin-5-yl)-methyl]-3,9-diazaspiro[5.5]-undecane-3-carbonyl]-2,3-dihydro-1H-inden-1-yl]-5-(trifluoromethyl)-benzamide]
100	O=C(NC1CCc2ccc(C(=O)N3CCC4(CCN(Cc5ccc6ncccc6c5)CC4)CC3)cc21)c1cc(C(F)(F)F)ccc1Cl (stereo not shown) [IND_CC-695, 2-Chloro-N-[6-[9-(quinolin-6-yl-methyl)-3,9-diazaspiro[5.5]undecane-3-carbonyl]-2,3-dihydro-1H-inden-1-yl]-5-(trifluoromethyl)-benzamide]
102	O=C(NC1CCc2ccc(C(=O)N3CCC4(CCN(Cc5ccc6nccnc6c5)CC4)CC3)cc21)c1cc(C(F)(F)F)ccc1Cl (stereo not shown) [IND_CC-696, 2-Chloro-N-[6-[9-(quinoxalin-6-yl-methyl)-3,9-diazaspiro[5.5]undecane-3-carbonyl]-2,3-dihydro-1H-inden-1-yl]-5-(trifluoromethyl)-benzamide]
90	CC(C)CN1CCC2(CC1)CCN(C(=O)c1ccc3c(c1)C(NC(=O)c1cc(C(F)(F)F)ccc1Cl)CC3)CC2 (stereo not shown) [IND_CC-698, 2-Chloro-N-[6-[9-(2-methyl-propyl)-3,9-diazaspiro[5.5]undecane-3-carbonyl]-2,3-dihydro-1H-inden-1-yl]-5-(trifluoromethyl)-benzamide]
75	CCC(CC)CN1CCC2(CC1)CCN(C(=O)c1ccc3c(c1)C(NC(=O)c1cc(C(F)(F)F)ccc1Cl)CC3)CC2 (stereo not shown) [IND_CC-699, 2-Chloro-N-[6-[9-(2-ethyl-butyl)-3,9-diazaspiro[5.5]undecane-3-carbonyl]-2,3-dihydro-1H-inden-1-yl]-5-(trifluoromethyl)-benzamide]
64	O=C(NC1CCc2ccc(C(=O)N3CCC4(CCN(CC5CCCCC5)CC4)CC3)cc21)c1cc(C(F)(F)F)ccc1Cl (stereo not shown) [IND_CC-700, 2-Chloro-N-[6-[9-(cyclohexyl-methyl)-3,9-diazaspiro[5.5]undecane-3-carbonyl]-2,3-dihydro-1H-inden-1-yl]-5-(trifluoromethyl)-benzamide]
96	O=C(NC1CCc2ccc(C(=O)N3CCC4(CCN(CCc5ccccc5)CC4)CC3)cc21)c1cc(C(F)(F)F)ccc1Cl (stereo not shown) [IND_CC-701, 2-Chloro-N-[6-(9-phenethyl-3,9-diazaspiro[5.5]undecane-3-carbonyl)-2,3-dihydro-1H-inden-1-yl]-5-(trifluoromethyl)-benzamide]
80	O=C(NC1CCc2ccc(C(=O)N3CCC4(CCN(CCCc5cccc(F)c5)CC4)CC3)cc21)c1cc(C(F)(F)F)ccc1Cl (stereo not shown) [IND_CC-702, 2-Chloro-N-[6-[9-[3-(3-fluorophenyl)-propyl]-3,9-diazaspiro[5.5]undecane-3-carbonyl]-2,3-dihydro-1H-inden-1-yl]-5-(trifluoromethyl)-benzamide]
70	O=C(NC1CCc2ccc(C(=O)N3CCC4(CCN(CCCc5ccc(F)cc5)CC4)CC3)cc21)c1cc(C(F)(F)F)ccc1Cl (stereo not shown) [IND_CC-703, 2-Chloro-N-[6-[9-[3-(4-fluorophenyl)-propyl]-3,9-diazaspiro[5.5]undecane-3-carbonyl]-2,3-dihydro-1H-inden-1-yl]-5-(trifluoromethyl)-benzamide]
91	CCCNC(=O)N1CCC2(CC1)CCN(C(=O)c1ccc3c(c1)C(NC(=O)c1ccccc1Cl)CC3)CC2 (stereo not shown) [IND_CC-704, 3-[3-[(2-Chloro-benzoyl)amino]-2,3-dihydro-1H-indene-5-carbonyl]-N-propyl-3,9-diazaspiro[5.5]undecane-9-carboxylic acid amide]
101	N#Cc1cccc(NC(=O)N2CCC3(CC2)CCN(C(=O)c2ccc4c(c2)C(NC(=O)c2ccccc2Cl)CC4)CC3)c1 (stereo not shown) [IND_CC-705, 3-[3-[(2-Chloro-benzoyl)amino]-2,3-dihydro-1H-indene-5-carbonyl]-N-(3-cyano-phenyl)-3,9-diazaspiro[5.5]undecane-9-carboxylic acid amide]
103	O=C(NC1CCc2ccc(C(=O)N3CCC4(CCN(C(=O)NCc5ccccc5)CC4)CC3)cc21)c1ccccc1Cl (stereo not shown) [IND_CC-706, N-Benzyl-3-[3-[(2-chloro-benzoyl)amino]-2,3-dihydro-1H-indene-5-carbonyl]-3,9-diazaspiro[5.5]undecane-9-carboxylic acid amide]
92	CN(C)c1ccc(NC(=O)N2CCC3(CC2)CCN(C(=O)c2ccc4c(c2)C(NC(=O)c2ccccc2Cl)CC4)CC3)cc1 (stereo not shown) [IND_CC-707, 3-[3-[(2-Chloro-benzoyl)amino]-2,3-dihydro-1H-indene-5-carbonyl]-N-(4-dimethylaminophenyl)-3,9-diazaspiro[5.5]undecane-9-carboxylic acid amide]
99	O=C(NC1CCc2ccc(C(=O)N3CCC4(CCN(C(=O)NC5CCCCC5)CC4)CC3)cc21)c1ccccc1Cl (stereo not shown) [IND_CC-708, 3-[3-[(2-Chloro-benzoyl)amino]-2,3-dihydro-1H-indene-5-carbonyl]-N-cyclohexyl-3,9-diazaspiro[5.5]undecane-9-carboxylic acid amide]
91	O=C(NC1CCc2ccc(C(=O)N3CCC4(CCN(C(=O)Nc5c(Cl)cccc5Cl)CC4)CC3)cc21)c1ccccc1Cl (stereo not shown) [IND_CC-709, 3-[3-[(2-Chloro-benzoyl)amino]-2,3-dihydro-1H-indene-5-carbonyl]-N-(2,6-dichloro-phenyl)-3,9-diazaspiro[5.5]undecane-9-carboxylic acid amide]
90	O=C(NC1CCc2ccc(C(=O)N3CCC4(CCN(C(=O)Nc5ccc(Cl)cc5Cl)CC4)CC3)cc21)c1ccccc1Cl (stereo not shown) [IND_CC-710, 3-[3-[(2-Chloro-benzoyl)amino]-2,3-dihydro-1H-indene-5-carbonyl]-N-(2,4-dichlorophenyl)-3,9-diazaspiro[5.5]undecane-9-carboxylic acid amide]
94	O=C(NC1CCc2ccc(C(=O)N3CCC4(CCN(C(=O)Nc5ccc(F)cc5F)CC4)CC3)cc21)c1ccccc1Cl (stereo not shown) [IND_CC-711, 3-[3-[(2-Chloro-benzoyl)amino]-2,3-dihydro-1H-indene-5-carbonyl]-N-(2,4-difluoro-phenyl)-3,9-diazaspiro[5.5]undecane-9-carboxylic acid amide]
76	CCCNC(=O)N1CCC2(CC1)CCN(C(=O)c1ccc3c(c1)C(N(C(=O)c1ccccc1Cl)C1CC1)CC3)C2 (stereo not shown) [IND_CC-712, 2-[3-[(2-Chloro-benzoyl)-cyclopropyl-amino]-2,3-dihydro-1H-indene-5-carbonyl]-N-propyl-2,8-diazaspiro[4.5]decane-8-carboxylic acid amide]
77	O=C(Nc1ccc(F)c(Cl)c1)N1CCC2(CC1)CCN(C(=O)c1ccc3c(c1)C(N(C(=O)c1ccccc1Cl)C1CC1)CC3)C2 (stereo not shown) [IND_CC-713, 2-[3-[(2-Chloro-benzoyl)-cyclopropyl-amino]-2,3-dihydro-1H-indene-5-carbonyl]-N-(3-chloro-4-fluoro-phenyl)-2,8-diazaspiro[4.5]decane-8-carboxylic acid amide]
